ChEMBL document CHEMBL3797052 (Eur J Med Chem, 2016)

Tested on: not listed separately
Assay: Antiproliferative activity against human HCT15 cells assessed as growth inhibition after 48 hrs by sulforhodamine B assay
Type: functional
Conditions: HCT-15, 48 h

Structure (SMILES)	GI50 [µM]	TGI [µM]
CNC(=O)c1cc(Oc2ccc(NC(=O)Nc3ccc(Cl)c(C(F)(F)F)c3)cc2)ccn1 [SORAFENIB]	2.51	12.6

Tested on: NCI-H322M
Assay: Antiproliferative activity against human NCI-H322M cells assessed as growth inhibition after 48 hrs by sulforhodamine B assay
Type: functional
Conditions: not given

Structure (SMILES)	GI50 [µM]	TGI [µM]
CNC(=O)c1cc(Oc2ccc(NC(=O)Nc3ccc(Cl)c(C(F)(F)F)c3)cc2)ccn1 [SORAFENIB]	2.51	10

Tested on: SK-MEL-5
Assay: Antiproliferative activity against human SK-MEL-5 cells assessed as growth inhibition after 48 hrs by sulforhodamine B assay
Type: functional
Conditions: SK-MEL-5, 48 h

Structure (SMILES)	TGI [µM]
CNC(=O)c1cc(Oc2ccc(NC(=O)Nc3ccc(Cl)c(C(F)(F)F)c3)cc2)ccn1 [SORAFENIB]	3.16

Same assay, conditions: SK-MEL-5, 48 h, read-out: LC50 (the source's name)

Structure (SMILES)	CC50 [µM]
CNC(=O)c1cc(Oc2ccc(NC(=O)Nc3ccc(Cl)c(C(F)(F)F)c3)cc2)ccn1 [SORAFENIB]	5.01

Tested on: not listed separately
Assay: Antiproliferative activity against human SW620 cells assessed as growth inhibition after 48 hrs by sulforhodamine B assay
Type: functional
Conditions: SW-620, 48 h

Structure (SMILES)	GI50 [µM]	TGI [µM]
CNC(=O)c1cc(Oc2ccc(NC(=O)Nc3ccc(Cl)c(C(F)(F)F)c3)cc2)ccn1 [SORAFENIB]	2.51	12.6

Same assay, conditions: SW-620, 48 h, read-out: LC50 (the source's name)

Structure (SMILES)	CC50 [µM]
CNC(=O)c1cc(Oc2ccc(NC(=O)Nc3ccc(Cl)c(C(F)(F)F)c3)cc2)ccn1 [SORAFENIB]	39.8
